Data set [1] concerns the target T1, protocollagen prolyl hydroxylase (Gallus gallus, UniProt P16924).
T1 construct: 190 chick embryos (14 days old) were homogenized; from tissue; host or cells: whole 14-day chick embryos; Triton X-100 extract, ammonium sulfate, calcium phosphate gel and DEAE-cellulose fractions
T1 sequence (P16924 1-516): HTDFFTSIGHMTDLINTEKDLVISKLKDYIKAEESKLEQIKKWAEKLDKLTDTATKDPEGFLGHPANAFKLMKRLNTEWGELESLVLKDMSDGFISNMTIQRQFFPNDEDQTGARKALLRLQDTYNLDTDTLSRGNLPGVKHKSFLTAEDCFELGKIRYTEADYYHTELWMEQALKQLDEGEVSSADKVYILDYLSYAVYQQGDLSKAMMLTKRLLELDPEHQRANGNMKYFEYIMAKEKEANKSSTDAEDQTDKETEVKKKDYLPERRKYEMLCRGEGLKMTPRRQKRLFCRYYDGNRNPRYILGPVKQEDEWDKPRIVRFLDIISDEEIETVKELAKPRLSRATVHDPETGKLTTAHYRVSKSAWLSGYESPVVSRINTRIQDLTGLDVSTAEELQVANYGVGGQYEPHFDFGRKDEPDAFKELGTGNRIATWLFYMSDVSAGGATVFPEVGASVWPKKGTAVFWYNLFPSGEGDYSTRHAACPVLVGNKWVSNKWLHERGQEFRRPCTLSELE
T1 sequence (P09102 23-515 partner): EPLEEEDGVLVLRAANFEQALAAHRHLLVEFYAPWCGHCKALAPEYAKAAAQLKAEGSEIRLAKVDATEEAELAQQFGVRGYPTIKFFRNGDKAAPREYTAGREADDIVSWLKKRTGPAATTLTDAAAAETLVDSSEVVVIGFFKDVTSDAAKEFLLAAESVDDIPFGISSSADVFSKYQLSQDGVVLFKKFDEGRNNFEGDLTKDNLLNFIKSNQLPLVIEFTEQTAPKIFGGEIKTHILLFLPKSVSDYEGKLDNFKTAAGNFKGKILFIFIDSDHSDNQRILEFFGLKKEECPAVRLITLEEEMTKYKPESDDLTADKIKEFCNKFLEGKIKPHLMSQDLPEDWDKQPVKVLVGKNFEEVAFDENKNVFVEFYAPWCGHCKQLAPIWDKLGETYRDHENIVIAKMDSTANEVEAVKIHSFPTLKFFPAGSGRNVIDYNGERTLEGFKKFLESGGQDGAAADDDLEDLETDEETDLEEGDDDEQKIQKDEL
The experiment in a line: Activity to inhibit protocollagen prolyl hydroxylase. In kind it is biochemical, chick embryos. To be noted: concentration required for 50% inhibition of enzymic activity; pH 7.8, 37° C., 30 minutes; substrate (Pro-Pro-Gly)5.4H2O; read-out: ID50 (the source's name) (converted). As to the method: Method for the preparation of protocollagen prolyl hydroxylase: The method of K.I. Kivirikko et al and that of J. Halme et al were partially modified. [cf. Journal of Biological Chemistry 242, 4007 (1967) and Biochimica et Biophysica Acta 198, 460 (1970)]. Thus, 190 chick embryos (14 days old) were homogenized in 1600 ml of NaCl-GlycineTris[tris(hydroxymethyl)aminomethane]-HCl buffer containing 0.1% Triton [polyethylene glycol p-isooctylphenyl ether] X-100 (pH 7.5) and centrifuged. […]
Thus, 1.5 ml of a reaction mixture containing 50 μmols of Tris-HCl buffer (pH 7.8), 0.1 μmol of 1-^14 C-α-ketoglutarate (0.016 μ Ci), 0.5 μmol of ascorbate, 0.1 μmol of ferrous ammonium sulfate, 4.0 mg of heat denatured bovine serum albumin, 0.1 mg of crystalline bovine liver catalase, 0.15 μmol of dithiothreitol, 0.15 mg of (Pro-Pro-Gly)5.4H2 O, 0.5 ml of the enzyme solution and 0.1 ml of either methanol or methanol solution containing an inhibitor was put in a sealed test tube in which a filter paper impregnated with Hyamine (Hydroxide and Hyamine 10-X (Packard Instrument Co.)] had been hung and the reaction was carried out under shaking at 37° C. for 30 minutes. The reaction was terminated by the addition of 0.5 ml of 25% trichloroacetic acid and the enzymic activity was determined by measuring the radioactivity of the released ^14 CO2 trapped in filterpaper. […]

Data set [2] concerns collagen biosynthesis. In words: Inhibition of collagen biosynthesis in normal rats (uteri of 17-β-estradiol-stimulated immature rats). It counts as in vivo, SD rats (female, 3 weeks old). To be noted: i.p. 100 mg/kg at intervals of 24 hours, 6 days; for inhibition at 100 mg/kg: Rattus norvegicus, ip, vs 17-β-estradiol control. As to the method:
According to the partially modified method of R.A. Salvador et al [Archives of Biochemistry and Biophysics 174, 382 (1976)], the following experiment was carried out with SD rats (female, 3 weeks old) in groups of 4 animals.
The test compound suspended in 4% gum arabic-physiological saline was intraperitoneally administered to rats in doses of 100 mg/kg at intervals of 24 hours for 6 consecutive days.
During the final 3 days, 5 μg/rat of 17-β-estradiol in 5% ethanol-saline solution or 5% ethanol-saline solution was administered one hour after the administration of compound (I). On the 7th day, each rat was killed and the uterus was excised, washed with ethanol-diethylether, dried at 60° C. for 2 hours and weighted to know the dry weight. The dry preparation was hydrolyzed with 3 ml of 6N-HCl at 110° C. for 22 hours, after which it was concentrated to dryness to remove the hydrochloric acid. The total amino acid in the hydrolyzate was determined by ninhydrin assay and from this value the total protein content of uterus was calculated as leucine equivalent. The amount of hydroxyproline in the hydrolyzate was also measured by the method of Blumenkratz et al [Analytical Biochemistry 63, 331 (1975)] and multiplied by 7.23 to obtain the amount of collagen. The amount of noncollagenous protein was calculated by substracting the amount of collagen from the total amount of protein.
The inhibitory activity of this compound on the synthesis of collagen and noncollagenous protein in the uteri of 17-β-estradiol-stimulated immature rats are shown as % reductions in the amounts of collagen and noncollagenous protein. Inhibition rate is calculated by the equation described in the legend of Table 2.

In data set [3] the test system is protocollagen prolyl hydroxylase. In words: Protocollagen prolyl hydroxylase activity in liver in carbon tetrachloride-induced hepatic cirrhosis. It counts as in vivo, Male Sprague-Dawley rats. To be noted: CCl4 + compound, i.p. 100 mg/kg three times weekly, total 10 doses, dpm = decay per minute. As to the method:
(§1) Male Sprague-Dawley rats weighting approximately 150 g each were divided into three groups. The first group received both 10% CCl4 -olive oil mixture (1 ml/rat) and compound (I) (100 mg/kg) intraperitoneally three times weekly for a total 10 doses. The second and third groups received 10% CCl4 -olive oil mixture (1 ml/rat) and olive oil (1 ml/rat) intraperitoneally three times weekly for a total 10 doses, respectively. The rats were sacrificed two days after the last injection and the livers were immediately removed for the assays.
A 10% homogenate of the liver was prepared in 20 m mol/l Tris-HCl buffer (pH 7 5) containing 0.2 mol/l NaCl, 0.1 mol/l glycine, 5×10^-5 mol/l 1,4-dithiothreitol, and 0.1% Triton X-100 using a Polytron homogenizer. The homogenate was centrifuged at 15,000 g for 20 minutes and the clear supernatant was assayed for protocollagen prolyl hydroxylase activity by the method of Hutton et al [Analytical Biochemistry 16, 384 (1966)]. The protein content of the homogenate was measured by the method of Lowry et al [Journal of Biological Chemistry 193, 265 (1951)] using bovine serum albumin as the standard.
(§2) The specific activity of protocollagen prolyl hydroxylase and hydroxyproline content in the liver treated with the compound as shown in Table 3.

In data set [4] the test system is collagen biosynthesis. In words: Hydroxyproline content of liver in carbon tetrachloride-induced hepatic cirrhosis. It counts as in vivo, Male Sprague-Dawley rats. To be noted: CCl4 + compound, i.p. 100 mg/kg three times weekly, total 10 doses. As to the method:
as §1
Hydroxyproline content of the livers was measured in a 6N-HCl hydrolysate (110° C., 22h) by the method of Blumenkrantz et al.
as §2

The nature of a further data set: Acute toxicity. To be noted: mouse, in vivo, ip; intraperitoneal; mice, groups of 5; 8 days observation. On the set-up: species or system male 4-week-old mice. How it is done: Protocatechuic acid was intraperitoneally administered to male 4-week-old mice in groups of 5 animals and the animals were kept under observation for 8 days. The LD50 values thus found was >400 mg/kg for it.

[5] abbreviates: 17-β-estradiol + compound, uterus, 7th day.

Read-outs that look alike come from different tables or passages of the source.

Turning to `O=C(O)Cc1ccc(O)c(O)c1` [Homoprotocatechnic acid, homoprotocatechuic acid], in data set [1], the IC50 is 17.8 µM.
For the compound `O=C(O)c1ccc(O)c(O)c1` [Protocatechuic acid, protocatechuic acid], the IC50 in data set [1] was 19.5 µM. Further, the “Body weight of rats, 7th day” value in the data set on collagen biosynthesis [2] (17-β-estradiol + compound) was 75 ± 3 g. In the data set on collagen biosynthesis [2] (setting [5]), the Total collagen amounted to 3.31 ± 0.37 mg/uterus and the Total protein is recorded as 25.4 ± 2.2 mg/uterus. Moreover, the inhibition (commonly the change of the read-out against control, counted positive when it falls) at 100 mg/kg in the data set with collagen biosynthesis [2] (uterus, read-out: Inhibition rate, collagen) came to 85%. Besides, the inhibition at 100 mg/kg in the data set with collagen biosynthesis [2] (uterus, read-out: Inhibition rate, noncollagenous protein) came out at 15%. The Prolyl hydroxylase in data set [3] is given as 1463 ± 236 dpm/mg of protein. The Hydroxyproline in the data set on collagen biosynthesis [4] is 0.70 ± 0.09 μg/mg of liver. For the same compound, the LD50 – broadly, the dose expected to kill half of the subjects tested – at 192 h in “Acute toxicity” is more than 400 mg/kg.

(Values after patent US4248892A, “Antifibrotic agent” (Takeda Chemical Industries, Ltd., priority 1978, dated 1981).)
